Results on 3 compounds are retold here after patent US12016942B2, “Potassium hydrogen salts of alkylhydroxamates and compositions comprising the same” (Inolex Investment Corporation, priority 2021, dated 2024).

The conditions of data set [1]: cited from earlier work.
Data set [2] can be described thus: Solution pH of alkali metal salts of caprylhydroxamic acid in deionized water. The format is physicochemical. The settings on record: for Solution pH Difference: NaCH minus KH(CH)2. The source says:
In some cases, the pH adjuster brings the aqueous formulation including potassium hydrogen alkylhydroxamate salts to a lower pH value than if no pH adjuster were employed in the compound. The amount of pH adjuster will depend upon the concentration of the potassium hydrogen alkylhydroxamate salts in aqueous solution. […] […] Target pH levels for the formulations as disclosed herein, e.g., for personal care products and the like, are less than pH 8. Minimal additions of the pH adjuster are required when using potassium hydrogen alkylhydroxamate salt compounds as described herein to achieve the desired pH less than 8.

Data set [3] in a line: Titration of aqueous solutions with 0.1 N HCl. It counts as physicochemical. Particulars: for titration endpoint: 0.24 wt % aqueous solution, 0.1 N HCl. On the procedure:
Aqueous solutions (0.24 wt %) of KH(CH)2 and NaCH were prepared by dissolving the respective compounds of Example 1 and Comparative Example 1 in deionized water. The solutions were titrated with 0.1 N HCl solution using a Metrohm autotitrator.

SMILES strings stand for the structures.

In the case of `CCCCCCCC(=O)NO` [CHA, caprylhydroxamic acid], in data set [1], the pKa result was “≈ 9.4”.
In the case of `CCCCCCCC(=O)N[O-].O.[Na+]` [Comparative Example 1, sodium octanohydroxamate monohydrate, reference compound], the “Solution pH” value in data set [2] (0.15 % in deionized water) is 10.26; in data set [2] (0.25 % in deionized water), 10.85; in data set [2] (0.50 % in deionized water), 10.95; in data set [2] (1.00 % in deionized water) it was 11.10. In addition, the “pH value in a 1% aqueous solution” value in data set [2] was 11.0-11.5. In addition, the titration endpoint in data set [3] is listed as 18.4 mL.
Regarding `CCCCCCCC(=O)NO.[K]` [Example 1, potassium hydrogen caprylhydroxamate], the “Solution pH” value in data set [2] (0.15 % in deionized water) amounted to 9.35; in data set [2] (0.25 % in deionized water), 9.64; in data set [2] (0.50 % in deionized water), 9.60; in data set [2] (1.00 % in deionized water), 9.58. For the same compound, the “Solution pH Difference” value was 0.91 in data set [2] (0.15 %), 1.21 in data set [2] (0.25 %), 1.35 in data set [2] (0.50 %) and 1.52 in data set [2] (1.00 %). Further, the “pH value in a 1% aqueous solution” value in data set [2] is given as 9.0-10.0. The compound also showed a titration endpoint in data set [3] of 10.7 mL. Further, the “less acid required to neutralize vs NaCH solution” value in data set [3] (identical concentration 0.24 wt %) is on record as “approximately 42%”.
